In one test the test system is B16-F10 melanoma cells. Briefly: Topical calcipotriene plus IP DMXAA against subcutaneous B16-F10 melanoma in mice. In kind it is in vivo, mouse (wild-type C57BL/6). The settings on record: for T cell (CD3+CD19−) infiltrate within the treated melanoma tumors / proliferation (Ki67+) of CD4+ and CD8+ tumor infiltrating T lymphocytes (melanoma tumors): flow cytometry at harvest; for cutaneous melanoma growth (tumor volume over time): three applications, topical calcipotriene 40 nmol, IP DMXAA 400 μg, compared to EtOH plus saline, p=0.019 for the combination. On the procedure: (2A) Schematic diagram of the experimental protocol used to determine the efficacy of calcipotriene plus DMXAA as a localized immunotherapy for melanoma. B16-F10 melanoma cells are implanted subcutaneously into the flanks of wild-type C57BL/6 mice. When tumors reached 5 mm in diameter (day 14), the following treatments were applied three times: (a) 40 nmol calcipotriene in 20 microliters of 100% EtOH followed by IP injection of 400 μg DMXAA in 100 μl saline, (b) 40nmol calcipotriene in 20 microliters of 100% EtOH followed by IP injection of 100 μl saline, (c) 20 microliters of 100% EtOH followed by IP injection of 400 μg DMXAA in 100 μl saline, and (d) 20 microliter 100% EtOH followed by IP injection of 100 μl saline.
Melanoma Cells (B16-F10, ATCC, Manassas, VA) were injected subcutaneously into flanks of mice at 2×10^5 cells per 100 μl of 1:1 ratio of DMEM (Corning) at day 0. Flank regions of recipient mice were shaved prior to cancer cell injection. Topical treatment with calcipotriene or EtOH together with intraperitoneal (IP) injection of DMXAA (murine STING agonist, 5,6-Dimethylxanthenone-4-acetic Acid, ASA404, or Vadimezan) or normal saline were initiated when tumor sizes reached 5 mm in diameter. Mice were divided into 4 groups and were treated topically with either calcipotriene (40 nmol) or ethanol (EtOH) as carrier directly on the tumor sites. Following treatment of either calcipotriene or EtOH (control), mice were injected IP with either 400 μg DMXAA in 100 μl normal saline or normal saline alone (control). Calcipotriene/EtOH and DMXAA/saline treatments were re-applied two more times (FIG. 2A). Animals were monitored daily and tumors measured over time to determine the impact of treatments on melanoma growth. At harvest, tumors were weighed, and the tumor infiltrating T cells were profiled using flow cytometry.

The test system of test [1] is PyMTtg primary breast cancer cells. Briefly: Topical treatment of subcutaneous PyMTtg breast cancer tumors in mice. In kind it is in vivo, mouse (wild-type C57BL/6). The settings on record: two topical applications; calcipotriene 80 nmol, imiquimod 5% cream; compared to EtOH plus control cream; p=0.011 for the combination.
Description: PyMTtg primary breast cancer cells are implanted subcutaneously into the inguinal regions of wild-type C57BL/6 mice. When tumors reached 5 mm in diameter (day 13), the following topical treatments applied to the tumor sites twice: (a) 80nmol calcipotriene in 20 microliters of 100% EtOH followed by 5% imiquimod cream, (b) 80nmol calcipotriene in 20 microliter 100% EtOH followed by moisturizing (control) cream, (c) 20 microliter 100% EtOH followed by 5% imiquimod cream, and (d) 20 microliter 100% EtOH followed by moisturizing (control) cream.
Breast cancer cells were obtained from PyMTtg mice that develop spontaneous breast cancer resembling luminal type of breast cancer in humans^12. Breast cancers of PyMTtg mice were harvested before the tumors reached 2 cm in diameter. Cancers were excised and dissociated into single cell suspension. Breast cancer cells were re-suspended at a concentration of 1×10^6 cells per 100 μl of 1:1 ratio of RPMI and Matrigel Membrane Matrix (Corning). Inguinal regions of recipient mice were shaved prior to cancer cell injection. 1×10^6 cells were injected subcutaneously at day 0. Topical treatments were applied when tumor sizes reached 5 mm in diameter. […] Animals were monitored daily and tumors measured over time to determine the impact of topical treatments on breast cancer growth. […]

As for `Cc1ccc2c(=O)c3cccc(CC(=O)O)c3oc2c1C` [DMXAA, 5,6-Dimethylxanthenone-4-acetic Acid], in the test on B16-F10 melanoma cells, the “T cell (CD3+CD19−) infiltrate within the treated melanoma tumors” value is recorded as “absent”; the “proliferation (Ki67+) of CD4+ and CD8+ tumor infiltrating T lymphocytes (melanoma tumors)” value was “absent”; the “cutaneous melanoma growth (tumor volume over time)” value was “did not show a significant impact on melanoma development”.
Regarding `C=C1/C(=C\C=C2/CCC[C@]3(C)[C@@H]([C@H](C)/C=C/[C@@H](O)C4CC4)CC[C@@H]23)C[C@@H](O)C[C@@H]1O` [calcipotriene], in the test on B16-F10 melanoma cells, the “T cell (CD3+CD19−) infiltrate within the treated melanoma tumors” value is listed as “absent”; the “proliferation (Ki67+) of CD4+ and CD8+ tumor infiltrating T lymphocytes (melanoma tumors)” value was “absent”; the “cutaneous melanoma growth (tumor volume over time)” value is “showed efficacy in inhibiting melanoma growth”. Moreover, the “cutaneous breast tumor growth (tumor volume over time)” value in test [1] was “did not show a significant impact on breast cancer growth”.
In the case of `CC(C)Cn1cnc2c(N)nc3ccccc3c21` [imiquimod], the “cutaneous breast tumor growth (tumor volume over time)” value in test [1] is reported as “did not show a significant impact on breast cancer growth”.
